The values below come from article PMC12118337, “Development of a Peptide Inhibitor Targeting the C‐SH2 Domain of the SHP2 Phosphatase” (Chembiochem, 2025).

One test concerns the target T1, SHP2 N‐SH2 domain (Homo sapiens, UniProt Q06124).
T1 construct: SHP2 N-SH2 domain (1–105), C-SH2 domain (106–220), PTP domain (224–541) and; His6 (pETM22 vector) (N, cleaved yes); made in house; host or cells: E. coli BL21(DE3)
T1 sequence (Q06124 1-105): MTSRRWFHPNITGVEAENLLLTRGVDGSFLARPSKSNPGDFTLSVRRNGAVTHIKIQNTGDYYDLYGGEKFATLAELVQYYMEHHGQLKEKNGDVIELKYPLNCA
The experiment in a line: Fluorescence polarization (FP) binding assay, SHP2 N-SH2 domain. The conditions noted are these: 100 nM FAM-labelled peptide, increasing N-SH2 protein, 50 mM HEPES pH 7.5, 150 mM NaCl, 1 mM EDTA, 0.05% Tween 20, FP at 10 min, three independent experiments in technical triplicates, read-out: K D ± SEM, N‐SH2 (FP). The protocol: (§1) buffer and stored in 5 mL binding buffer at 4°C. His-tagged 3C protease (0.5 mg; EMBL) was added to the pooled eluted fractions and dialysed using Spectra Por Dialysis Tubing (MWCO 6-8 kDa, 23 mm; Spectrum Labs) in 1 L of binding buffer at 4°C for 3 hours, then overnight in fresh buffer. A new column was prepared by loading 2 mL Ni-NTA Agarose (Invitrogen) as a 50% slurry in EtOH. The column was washed with 10 mL H2O to remove the EtOH and equilibrated with 10 mL binding buffer. The protein/3C protease mixture was loaded onto the column and incubated for 1 hour at 4°C on a rocker. The flow through containing the protein was collected, the column was washed with 100 mL binding buffer and the 3C protease was eluted with 5 mL elution buffer. Protein purification was monitored by SDS-PAGE using NuPAGE 4-12% Bis-Tris Protein Gels (Invitrogen) run in MOPS buffer (50 mM MOPS, 50 mM Tris-HCl pH 7.7, 1 mM EDTA, 0.1% SDS) followed by Coomassie staining using Coomassie Brilliant Blue (Roth). The purified protein was dialysed into the final storage buffer (50 mM HEPES pH 7.5, 150 mM NaCl, 2 mM DTT, 20% glycerol). Aliquots were prepared and stored at -80°C until required. […]
(§2) 4. Fluorescence polarization
(§3) Fluorescence polarization (FP) was used to measure the binding of FAM-labelled peptides to the SHP2 C-SH2, SHP2 N-SH2, SHP2 PTP, CSK SH2 or Src SH2 domains. Each peptide was added to increasing concentrations of SHP2 C-SH2, SHP2 N-SH2, SHP2 PTP, CSK SH2 or Src SH2 protein in FP buffer (50 mM HEPES pH 7.5, 150 mM NaCl, 1 mM EDTA, 0.05% Tween 20) to give a final peptide […]
(§4) concentration of 100 nM in a final volume of 200 µL. For baseline subtraction, each peptide was added to FP buffer, instead of protein, with a final peptide concentration of 100 nM in a final volume of 200 µL. Samples were mixed gently then 3 x 60 µL of each sample was transferred into triplicate wells in a 96-well plate (OptiPlate-96 F Black; PerkinElmer). The FP was immediately measured on a Synergy H1 Microplate Reader (BioTek) with the excitation and emission monitored at 485 nm and 528 nm, respectively, over 30 minutes. FP values were automatically calculated by the Gen5 3.03 (BioTek) software associated with the microplate reader. Data were analysed in Excel 2016 by subtracting baseline values from FP values at 10 minutes. Data were then further analysed in GraphPad Prism 6 by plotting the baseline subtracted FP values against the protein concentration and fitting the data to a variable slope model of non-linear regression to obtain the KD values. Data are from three independent experiments, each performed in technical triplicates.
(§5) 5. Isothermal titration calorimetry […]
(§6) Analysis Software (Malvern Panalytical). For the data analysis, a 1:1 binding stoichiometry between the Ac-ITSM(pTyr) and SH2 domain was assumed. ITC measurements were performed once.
For orientation: In fluorescence polarisation assays a small probe gives low polarisation when free and higher when bound to something large.

Another test addresses T2, SHP2 C‐SH2 domain (Homo sapiens, UniProt Q06124).
T2 construct: SHP2 N-SH2 domain (1–105), C-SH2 domain (106–220), PTP domain (224–541) and; His6 (pETM22 vector) (N, cleaved yes); made in house; host or cells: E. coli BL21(DE3)
T2 sequence (Q06124 106-220): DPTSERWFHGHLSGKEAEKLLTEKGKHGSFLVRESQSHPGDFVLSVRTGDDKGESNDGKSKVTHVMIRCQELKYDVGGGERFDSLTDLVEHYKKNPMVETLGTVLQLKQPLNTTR
The experiment in a line: Fluorescence polarization (FP) binding assay, SHP2 C-SH2 domain. The conditions noted are these: 100 nM FAM-labelled peptide, increasing C-SH2 protein, 50 mM HEPES pH 7.5, 150 mM NaCl, 1 mM EDTA, 0.05% Tween 20, FP at 10 min, three independent experiments in technical triplicates, read-out: K D ± SEM, C‐SH2 (FP). As to the method:
as §1, §2, §3, §4, §5, §6

Non-standard residues stand in square brackets, D forms with d. Residues, ends and D or L forms follow the SMILES beside them. *: point of attachment. 5FAM = O=C1OC2(c3ccc(O)cc3Oc3cc(O)ccc32)c2ccc(C(=O)*)cc21; pY = N[C@@H](Cc1ccc(OP(=O)(O)O)cc1)C(=O)O Where only a bound is given, the exact number is not on record here.

On to `CC[C@H](C)[C@H](NC(=O)[C@@H](NC(=O)[C@H](C)NC(=O)[C@H](Cc1ccc(OP(=O)(O)O)cc1)NC(=O)[C@H](CCC(=O)O)NC(=O)[C@@H](NC(=O)[C@H](CCC(N)=O)NC(=O)[C@H](CCC(=O)O)NC(=O)c1ccc2c(c1)C(=O)OC21c2ccc(O)cc2Oc2cc(O)ccc21)[C@@H](C)O)[C@@H](C)O)C(=O)N[C@@H](CCCCN)C(=O)N[C@@H](Cc1ccccc1)C(=O)N1CCC[C@H]1C(N)=O` [compound 9] (5FAM-EQTE[pY]ATIKFP-NH2), for which the Kd at SHP2 N‐SH2 domain was above 2000 nM; at SHP2 C‐SH2 domain, 72 ± 2.61 nM.
Taken in the same sequence, the figures for `CC(C)[C@H](NC(=O)[C@@H](NC(=O)[C@H](C)NC(=O)[C@H](Cc1ccc(OP(=O)(O)O)cc1)NC(=O)[C@H](CCC(=O)O)NC(=O)[C@@H](NC(=O)[C@H](CCC(N)=O)NC(=O)[C@H](CCC(=O)O)NC(=O)c1ccc2c(c1)C(=O)OC21c2ccc(O)cc2Oc2cc(O)ccc21)[C@@H](C)O)[C@@H](C)O)C(=O)N[C@@H](CCCCN)C(=O)N[C@@H](Cc1ccccc1)C(=O)N1CCC[C@H]1C(N)=O` [compound 10] (5FAM-EQTE[pY]ATVKFP-NH2) were above 3000 nM and 209 ± 14.4 nM.
The like results for `CC[C@H](C)[C@H](NC(=O)[C@@H](NC(=O)[C@H](C)NC(=O)[C@H](Cc1ccc(OP(=O)(O)O)cc1)NC(=O)[C@H](CCC(=O)O)NC(=O)[C@@H](NC(=O)[C@H](CCC(N)=O)NC(=O)c1ccc2c(c1)C(=O)OC21c2ccc(O)cc2Oc2cc(O)ccc21)[C@@H](C)O)[C@@H](C)O)C(=O)N[C@H](C(=O)N[C@@H](Cc1ccccc1)C(=O)N1CCC[C@H]1C(N)=O)C(C)C` [compound 11] (5FAM-QTE[pY]ATIVFP-NH2) were, in that order, 204 ± 10.4 nM and 40.8 ± 0.96 nM.
The like results for `CC[C@H](C)[C@H](NC(=O)[C@@H](NC(=O)[C@H](C)NC(=O)[C@H](Cc1ccc(OP(=O)(O)O)cc1)NC(=O)[C@H](CCC(=O)O)NC(=O)[C@@H](NC(=O)[C@H](CCC(N)=O)NC(=O)c1ccc2c(c1)C(=O)OC21c2ccc(O)cc2Oc2cc(O)ccc21)[C@@H](C)O)[C@@H](C)O)C(=O)N[C@@H](CCCCN)C(=O)N[C@@H](Cc1c[nH]c2ccccc12)C(=O)N1CCC[C@H]1C(N)=O` [compound 13] (5FAM-QTE[pY]ATIKWP-NH2) were, in that order, 368 ± 40 nM and 46.8 ± 1.29 nM.
Consider `CC[C@H](C)[C@H](NC(=O)[C@@H](NC(=O)[C@H](C)NC(=O)[C@H](Cc1ccc(OP(=O)(O)O)cc1)NC(=O)[C@H](CCC(=O)O)NC(=O)[C@@H](NC(=O)[C@H](CCC(N)=O)NC(=O)c1ccc2c(c1)C(=O)OC21c2ccc(O)cc2Oc2cc(O)ccc21)[C@@H](C)O)C(C)C)C(=O)N[C@@H](CCCCN)C(=O)N[C@@H](Cc1ccccc1)C(=O)N1CCC[C@H]1C(N)=O` [compound 14] (5FAM-QTE[pY]AVIKFP-NH2), for which the Kd at SHP2 N‐SH2 domain is 840 ± 228 nM; at SHP2 C‐SH2 domain it was 80.2 ± 4.32 nM.
Taken in the same sequence, the figures for `CC[C@H](C)[C@H](NC(=O)[C@@H](NC(=O)[C@H](C)NC(=O)[C@H](Cc1ccc(OP(=O)(O)O)cc1)NC(=O)[C@H](CCC(=O)O)NC(=O)[C@@H](NC(=O)[C@H](CCCCN)NC(=O)c1ccc2c(c1)C(=O)OC21c2ccc(O)cc2Oc2cc(O)ccc21)[C@@H](C)O)[C@@H](C)O)C(=O)N[C@@H](CCCCN)C(=O)N[C@@H](Cc1ccccc1)C(=O)N1CCC[C@H]1C(N)=O` [compound 15] (5FAM-KTE[pY]ATIKFP-NH2) were 1550 ± 528 nM and 61.5 ± 1.83 nM.
Regarding `CC[C@H](C)[C@H](NC(=O)[C@@H](NC(=O)[C@H](C)NC(=O)[C@H](Cc1ccc(OP(=O)(O)O)cc1)NC(=O)[C@H](CCC(=O)O)NC(=O)[C@@H](NC(=O)[C@H](CCC(N)=O)NC(=O)c1ccc2c(c1)C(=O)OC21c2ccc(O)cc2Oc2cc(O)ccc21)[C@@H](C)O)[C@@H](C)O)C(=O)N[C@@H](CCCCN)C(=O)N[C@@H](Cc1ccccc1)C(=O)N1CCC[C@H]1C(N)=O` [compound 16] (5FAM-QTE[pY]ATIKFP-NH2), the Kd on SHP2 N‐SH2 domain amounted to 1090 ± 199 nM; on SHP2 C‐SH2 domain, 86 ± 2.43 nM.
With `CC[C@H](C)[C@H](NC(=O)[C@@H](NC(=O)[C@H](C)NC(=O)[C@H](Cc1ccc(OP(=O)(O)O)cc1)NC(=O)[C@H](CCC(=O)O)NC(=O)[C@@H](NC(=O)[C@H](CCC(N)=O)NC(=O)c1ccc2c(c1)C(=O)OC21c2ccc(O)cc2Oc2cc(O)ccc21)[C@@H](C)O)[C@@H](C)O)C(=O)N[C@@H](CCCCN)C(=O)N[C@@H](Cc1ccc(O)cc1)C(=O)N1CCC[C@H]1C(N)=O` [compound 17] (5FAM-QTE[pY]ATIKYP-NH2), the values for the Kd on SHP2 N‐SH2 domain and on SHP2 C‐SH2 domain were above 3000 nM and 116 ± 7.7 nM, respectively.
Regarding `CC[C@H](C)[C@H](NC(=O)[C@@H](NC(=O)[C@H](C)NC(=O)[C@H](Cc1ccc(OP(=O)(O)O)cc1)NC(=O)[C@H](CCC(=O)O)NC(=O)[C@@H](NC(=O)[C@H](CCC(N)=O)NC(=O)[C@H](C)NC(=O)c1ccc2c(c1)C(=O)OC21c2ccc(O)cc2Oc2cc(O)ccc21)[C@@H](C)O)[C@@H](C)O)C(=O)N[C@H](C(=O)N[C@@H](Cc1ccccc1)C(=O)N1CCC[C@H]1C(N)=O)C(C)C` [peptide 1] (5FAM-AQTE[pY]ATIVFP-NH2), the values for the Kd on SHP2 N‐SH2 domain and on SHP2 C‐SH2 domain were 295 ± 37.2 nM and 62 ± 1.98 nM, respectively.
Taken in the same sequence, the figures for `CC[C@H](C)[C@H](NC(=O)[C@@H](NC(=O)[C@H](C)NC(=O)[C@H](Cc1ccc(OP(=O)(O)O)cc1)NC(=O)[C@H](CCC(=O)O)NC(=O)[C@@H](NC(=O)[C@H](C)NC(=O)[C@H](CCC(=O)O)NC(=O)c1ccc2c(c1)C(=O)OC21c2ccc(O)cc2Oc2cc(O)ccc21)[C@@H](C)O)[C@@H](C)O)C(=O)N[C@H](C(=O)N[C@@H](Cc1ccccc1)C(=O)N1CCC[C@H]1C(N)=O)C(C)C` [peptide 2] (5FAM-EATE[pY]ATIVFP-NH2) were 58 ± 4.6 nM and 51.3 ± 1.08 nM.
On to `CC[C@H](C)[C@H](NC(=O)[C@@H](NC(=O)[C@H](C)NC(=O)[C@H](Cc1ccc(OP(=O)(O)O)cc1)NC(=O)[C@H](CCC(=O)O)NC(=O)[C@H](C)NC(=O)[C@H](CCC(N)=O)NC(=O)[C@H](CCC(=O)O)NC(=O)c1ccc2c(c1)C(=O)OC21c2ccc(O)cc2Oc2cc(O)ccc21)[C@@H](C)O)C(=O)N[C@H](C(=O)N[C@@H](Cc1ccccc1)C(=O)N1CCC[C@H]1C(N)=O)C(C)C` [peptide 3] (5FAM-EQAE[pY]ATIVFP-NH2), for which the Kd at SHP2 N‐SH2 domain is 428 ± 25.1 nM; on SHP2 C‐SH2 domain, 135 ± 4.6 nM.
`CC[C@H](C)[C@H](NC(=O)[C@@H](NC(=O)[C@H](C)NC(=O)[C@H](Cc1ccc(OP(=O)(O)O)cc1)NC(=O)[C@H](CCC(=O)O)NC(=O)[C@@H](NC(=O)[C@H](CCC(N)=O)NC(=O)c1ccc2c(c1)C(=O)OC21c2ccc(O)cc2Oc2cc(O)ccc21)[C@@H](C)O)[C@@H](C)O)C(=O)N[C@@H](CCCCN)C(=O)N[C@@H](Cc1c[nH]cn1)C(=O)N1CCC[C@H]1C(N)=O` [peptide 18] (5FAM-QTE[pY]ATIKHP-NH2): the Kd was above 3000 nM on SHP2 N‐SH2 domain and 88.2 ± 4.29 nM on SHP2 C‐SH2 domain.
